Data on 1 molecule can be found in patent US7820661B2, “Substituted gamma lactams as therapeutics agents” (Allergan, Inc., priority 2008, dated 2010).

For the assay, the system named is lashes and adjacent hairs (hair growth). Put plainly: Observation of lashes and adjacent hairs in glaucoma patients treated with bimatoprost in only one eye. The assay is classed as in vivo. The text has this: In the course of treating patients having glaucoma, treatment may only be appropriate in one eye. […] The lash appearance on the lids of the treated eyes would have appeared quite attractive if it represented a bilateral phenomenon. As a result of its asymmetric nature, the long lashes on one side could be construed as disturbing from a cosmetic standpoint. A systemic examination was preformed as a result of the asymmetric phenomenon. It soon became apparent that this altered appearance was not an isolated finding.
The changes in the lashes were apparent on gross inspection in several patients once attention was focused on the issue. In those with light colored hair and lashes, the differences were only seen easily with the aid of the high magnification and lighting capabilities of the slit lamp biomicroscope. In the course of glaucoma follow-up examination, attention is generally immediately focused on the eye itself. As a result of the high power magnification needed only one eye is seen at a time and the eye is seen at a high enough power that the lashes are not in focus. At these higher powers, any lash asymmetry between the two eyes is not likely to be noticed except by careful systematic comparison of the lashes and adjacent hairs of the eyelids of the two eyes. […]

For `CCNC(=O)CCC/C=C\C[C@@H]1[C@@H](/C=C/[C@@H](O)CCc2ccccc2)[C@H](O)C[C@@H]1O` [bimatoprost], the “differences in the lashes and adjacent hairs of the treated side” value (all patients taking the drug on a unilateral basis for longer than 6 months) is “Definite differences could be identified to varying degrees”. Under “glaucoma patient treated in one eye, treated vs non-treated eye”, the “appearance of lashes in the treated eye compared with the non-treated eye” value is “longer, thicker, and fuller”.
